This is an account of results in patent US9028856B2, “Synergistic pesticide compositions” (priority 2008, dated 2015).

Series [1] concerns Argentine ant, Linepithema humile. Put plainly: Knockdown/mortality of ant workers under continuous exposure on treated glazed tile. The settings on record: Table 34, thiamethoxam/adjuvant in acetone, glazed tile. As for the experimental part: (§1) Solutions of imidacloprid at 0.5% AI were prepared with and without methyl oleate @0.1, 1.0 and 5.0% in acetone. Treatments were applied using a micropipette to dispense 1 ml of test solution evenly on a 6″×6″ glazed tile. Actual coverage was about 5″×5″ (or 161 cm^2) for easy handling. Treatments were allowed to dry overnight. Ten Argentine ant workers were placed within a fluon or talc-coated PVC ring (φ7.6 cm×H 5.1 cm) under continuous exposure. A small vial filled with a cotton ball soaked in water was added as a drinking source after 3 hours. Treatments were replicated a minimum of three times. Evaluations for ant knockdown/mortality were made at various intervals and at 24 hours after exposure.
as §1, with “MATERIALS AND METHODS: Solutions” for “Solutions”, “linoleate” for “oleate”
as §1, with “MATERIALS AND METHODS: Solutions of” for “Solutions of”, “without methyl palmitate @0.1, 1.0” for “without methyl oleate @0.1, 1.0”, “after exposure. […]” for “after exposure.”

The subject of series [2] is Odorous House ant, Tapinoma sessile. The description is as above. Format: in vivo. The conditions noted are these: Table 35, thiamethoxam/adjuvant in acetone, glazed tile. An excerpt:
Actual coverage was about 5″×5″ (or 161 cm2) for easy handling. Treatments were allowed to dry overnight. […] Treatments were replicated minimum three times.
Treatments were allowed to dry overnight. […] Treatments were replicated minimum three times.
Treatments were allowed to dry overnight. […] Treatments were replicated a minimum of three times.
Treatments were allowed to dry overnight. […] Treatments were replicated minimum of three times. […] The results are shown in FIG. 84 (No adjuvant alone treatment was performed).

Series [3] deals with susceptible/normal German cockroach (Monheim strain), Blattella germanica. Put plainly: Knockdown/mortality of male cockroaches under continuous exposure on treated glazed tile. Format: in vivo. The conditions noted are these: Table 36, thiamethoxam/adjuvant in acetone, glazed tile, Monheim strain. As to the method:
Treatments were allowed to dry overnight. […] Treatments were replicated a minimum of three times. […]
Treatments were allowed to dry overnight. […] Treatments were replicated a minimum of three times. Cockroach knockdown/mortality was evaluated at 5 minute intervals for the first 60 minutes after exposure and then at 2, 18 and 24 hours.

In series [4] the test system is Aedes aegypti mosquito. Put plainly: USDA Petri Dish Method, 3 min exposure to treated glazed tile. Format: in vivo. The conditions noted are these: Table 33, thiamethoxam/adjuvant in acetone, glazed tile, 3 min exposure. As to the method: Treatments were allowed to dry overnight. USDA Petri Dish Method was used as initial screening protocol. Twenty, 4-6 day old female Aedes aegypti mosquitoes were exposed to each treatment for 3 minutes and then moved to a clean untreated white paper index card. Treatments were replicated a minimum of three times. Mosquito knockdown was evaluated at various intervals through 7 hours after exposure. A small cotton ball soaked in sucrose solution was added on the screen top of the petri-dish as a drinking source. Mortality was evaluated at 24 hours after exposure.
MATERIALS AND METHODS: Solutions of resmethrin at 1 and 0.5% AI were prepared with and without adjuvant in acetone. […] USDA Petri Dish Method was used as initial screening protocol. Twenty, 4-6 day old female Aedes aegypti mosquitoes were exposed to each treatment for 3 minutes and then moved to a clean untreated white paper index card. Treatments were replicated a minimum of three times. Mosquito knockdown was evaluated at 3 minute intervals for the first 15 minutes and then at 5 minute intervals for the remainder of an hour. A small cotton ball soaked in sucrose solution was added on the screen top of the petri-dish as a drinking source. Mortality was evaluated at 24 hours after exposure.
Treatments were allowed to dry overnight. USDA Petri Dish Method was used as initial screening protocol. Twenty, 4-6 day old female Aedes aegypti mosquitoes were exposed to each treatment for 3 minutes and then moved to a clean untreated white paper index card. Treatments were replicated a minimum of three times. Mosquito knockdown was evaluated at various intervals through 6 hours after exposure. A small cotton ball soaked in sucrose solution was added on the screen top of the petri-dish as a drinking source. Mortality was evaluated at 24 hours after exposure.
Treatments were allowed to dry overnight. USDA Petri Dish Method was used as initial screening protocol. Twenty, 4-6 day old female Aedes aegypti mosquitoes were exposed to each treatment for 3 minutes and then moved to a clean untreated white paper index card. Treatments were replicated a minimum of three times. Mosquito knockdown was evaluated at 5 minute intervals for the first hour and then at 2, 4 and 6 hours. A small cotton ball soaked in sucrose solution was added on the screen top of the petri-dish as a drinking source. Mortality was evaluated at 24 hours after exposure.
Treatments were allowed to dry overnight. USDA Petri Dish Method was used as initial screening protocol. Twenty, 4-6 day old female Aedes aegypti mosquitoes were exposed to each treatment for 3 minutes and then moved to a clean untreated white paper index card. Treatments were replicated a minimum of three times. Mosquito knockdown was evaluated at 3-5 minute intervals for the first hour. A small cotton ball soaked in sucrose solution was then added on the screen top of the petri-dish as a drinking source. Mortality was evaluated at 24 hours after exposure.
Treatments were allowed to dry overnight. USDA Petri Dish Method was used as initial screening protocol. Twenty, 4-6 day old female Aedes aegypti mosquitoes were exposed to each treatment for 3 minutes and then moved to a clean untreated white paper index card. Treatments were replicated a minimum of three times. Mosquito knockdown was evaluated at various intervals through 2 hours after exposure. A small cotton ball soaked in sucrose solution was then added on the screen top of the petri-dish as a drinking source. Mortality was evaluated at 24 hours after exposure.
Treatments were allowed to dry overnight. USDA Petri Dish Method was used as initial screening protocol. Twenty, 4-6 day old female Aedes aegypti mosquitoes were exposed to each treatment for 3 minutes and then moved to a clean untreated white paper index card. Treatments were replicated a minimum of three times. Mosquito knockdown was evaluated at various hourly intervals. […]

Consider `CN1COCN(Cc2cnc(Cl)s2)/C1=N\[N+](=O)[O-]` [Thiamethoxam (0.01%)], for which, in series [1], the “Average % Mortality after 15 min” value was found to be 0%, the “Average % Mortality after 3 hr” value is 19% and the “Average % Mortality after 21 hr” value is on record as 100%. Moreover, in series [2], the “Average % Knockdown & Mortality after 15 min” value turned out to be 0%, the “Average % Knockdown & Mortality after 30 min” value came to 0%, the “Average % Knockdown & Mortality after 60 min” value was determined as 0% and the “Average % Knockdown & Mortality after 2 hr” value was 9%. In series [2], the “Average % Knockdown & Mortality after 20 hr” value came to 71%. Besides, in series [3], the “Average % Knockdown & Mortality after 30 min” value came out at 13%, the “Average % Knockdown & Mortality after 60 min” value came out at 67%, the “Average % Knockdown & Mortality after 90 min” value was found to be 87% and the “Average % Knockdown & Mortality after 3 hr” value worked out at 100%. For the same compound, the “Average % Knockdown & Mortality after 24 hr” value in series [3] stood at 100%. For the same compound, in series [4], the “Average % Knockdown & Mortality after 2 hr” value was found to be 0%, the “Average % Knockdown & Mortality after 3 hr” value amounted to 0%, the “Average % Knockdown & Mortality after 7 hr” value was determined as 0% and the “Average % Knockdown & Mortality after 24 hr” value was found to be 0%.
Consider `CN1COCN(Cc2cnc(Cl)s2)/C1=N\[N+](=O)[O-]` [Thiamethoxam (0.1%)], for which, in series [1], the “Average % Mortality after 15 min” value came to 12%, the “Average % Mortality after 3 hr” value came out at 46% and the “Average % Mortality after 21 hr” value was 100%. For the same compound, in series [2], the “Average % Knockdown & Mortality after 15 min” value is 0%, the “Average % Knockdown & Mortality after 30 min” value was 0%, the “Average % Knockdown & Mortality after 60 min” value was 0% and the “Average % Knockdown & Mortality after 2 hr” value was determined as 3%. Moreover, in series [2], the “Average % Knockdown & Mortality after 20 hr” value is reported as 33%. Further, in series [3], the “Average % Knockdown & Mortality after 30 min” value was found to be 7%, the “Average % Knockdown & Mortality after 60 min” value came to 73%, the “Average % Knockdown & Mortality after 90 min” value came out at 93% and the “Average % Knockdown & Mortality after 3 hr” value is 100%. Besides, in series [3], the “Average % Knockdown & Mortality after 24 hr” value is listed as 100%. For the same compound, in series [4], the “Average % Knockdown & Mortality after 2 hr” value is recorded as 0%, the “Average % Knockdown & Mortality after 3 hr” value is listed as 0%, the “Average % Knockdown & Mortality after 7 hr” value came out at 0% and the “Average % Knockdown & Mortality after 24 hr” value turned out to be 0%.
In the case of `CN1COCN(Cc2cnc(Cl)s2)/C1=N\[N+](=O)[O-]` [Thiamethoxam (1%)], in series [1], the “Average % Mortality after 15 min” value is recorded as 3%, the “Average % Mortality after 3 hr” value was 34% and the “Average % Mortality after 21 hr” value is 100%. Besides, in series [2], the “Average % Knockdown & Mortality after 15 min” value stood at 0%, the “Average % Knockdown & Mortality after 30 min” value worked out at 0%, the “Average % Knockdown & Mortality after 60 min” value is 0% and the “Average % Knockdown & Mortality after 2 hr” value worked out at 21%. Besides, the “Average % Knockdown & Mortality after 20 hr” value in series [2] was determined as 65%. In series [3], the “Average % Knockdown & Mortality after 30 min” value was 13%, the “Average % Knockdown & Mortality after 60 min” value stood at 73%, the “Average % Knockdown & Mortality after 90 min” value is given as 80% and the “Average % Knockdown & Mortality after 3 hr” value is reported as 93%. Moreover, in series [3], the “Average % Knockdown & Mortality after 24 hr” value turned out to be 100%. Besides, in series [4], the “Average % Knockdown & Mortality after 2 hr” value was 2%, the “Average % Knockdown & Mortality after 3 hr” value is on record as 2%, the “Average % Knockdown & Mortality after 7 hr” value amounted to 4% and the “Average % Knockdown & Mortality after 24 hr” value stood at 4%.
